Test results reported in patent publication US8148391B2 (Cephalon, Inc., priority 2006, dated 2012).
Read-outs that look alike come from different tables or passages of the source. Values belong to the compound of their own block, whether it stands above or below them.

What was measured:
[1] = target: T1, baculovirus-expressed ALK (Homo sapiens, UniProt Q9UM73); test: ALK Kinase Assay (ELISA-type, time-resolved fluorescence); assay type: biochemical
T1 construct: host or cells: baculovirus expression system
T1 sequence (Q9UM73 19-1620): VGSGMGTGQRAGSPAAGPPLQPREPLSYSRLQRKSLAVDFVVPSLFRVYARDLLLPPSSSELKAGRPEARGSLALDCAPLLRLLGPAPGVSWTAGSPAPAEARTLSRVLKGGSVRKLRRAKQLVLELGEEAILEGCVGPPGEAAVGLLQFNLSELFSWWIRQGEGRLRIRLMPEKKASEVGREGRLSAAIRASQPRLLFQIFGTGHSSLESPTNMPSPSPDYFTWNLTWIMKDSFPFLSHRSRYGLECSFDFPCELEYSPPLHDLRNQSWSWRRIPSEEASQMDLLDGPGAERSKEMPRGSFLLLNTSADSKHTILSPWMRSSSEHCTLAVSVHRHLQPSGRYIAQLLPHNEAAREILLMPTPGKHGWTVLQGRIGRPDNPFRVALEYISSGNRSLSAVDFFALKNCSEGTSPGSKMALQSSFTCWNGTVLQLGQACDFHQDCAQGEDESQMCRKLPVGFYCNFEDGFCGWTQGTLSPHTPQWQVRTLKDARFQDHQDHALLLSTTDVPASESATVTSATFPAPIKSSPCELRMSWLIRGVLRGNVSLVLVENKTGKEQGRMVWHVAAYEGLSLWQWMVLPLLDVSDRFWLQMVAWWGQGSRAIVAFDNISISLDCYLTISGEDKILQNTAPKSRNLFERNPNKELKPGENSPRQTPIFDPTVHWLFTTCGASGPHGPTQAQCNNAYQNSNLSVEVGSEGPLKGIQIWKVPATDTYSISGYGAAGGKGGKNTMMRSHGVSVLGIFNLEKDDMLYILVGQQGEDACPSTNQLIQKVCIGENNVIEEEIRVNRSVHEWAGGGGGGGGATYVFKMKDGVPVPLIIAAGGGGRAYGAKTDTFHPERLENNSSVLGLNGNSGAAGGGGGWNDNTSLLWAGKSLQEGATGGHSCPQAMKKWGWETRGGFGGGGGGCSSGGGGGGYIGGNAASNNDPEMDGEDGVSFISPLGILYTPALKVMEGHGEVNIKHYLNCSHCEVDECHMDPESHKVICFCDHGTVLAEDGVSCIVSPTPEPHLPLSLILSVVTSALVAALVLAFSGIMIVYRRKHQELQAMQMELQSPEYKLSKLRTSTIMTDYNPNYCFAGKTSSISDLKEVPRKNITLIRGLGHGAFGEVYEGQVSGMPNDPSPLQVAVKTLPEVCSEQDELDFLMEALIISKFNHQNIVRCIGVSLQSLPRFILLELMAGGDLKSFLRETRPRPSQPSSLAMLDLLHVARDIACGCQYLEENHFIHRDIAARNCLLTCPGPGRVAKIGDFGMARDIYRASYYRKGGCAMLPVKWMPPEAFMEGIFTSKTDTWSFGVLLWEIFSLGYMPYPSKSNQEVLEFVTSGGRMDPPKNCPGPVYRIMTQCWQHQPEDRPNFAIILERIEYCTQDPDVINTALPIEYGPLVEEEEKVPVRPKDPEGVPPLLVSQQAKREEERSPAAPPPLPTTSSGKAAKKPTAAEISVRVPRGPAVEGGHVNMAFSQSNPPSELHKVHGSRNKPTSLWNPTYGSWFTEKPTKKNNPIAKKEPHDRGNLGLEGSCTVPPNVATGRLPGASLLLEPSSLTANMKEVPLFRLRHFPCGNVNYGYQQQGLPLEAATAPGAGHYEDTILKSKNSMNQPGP
Procedure, shortened: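 Wells were coated with phospholipase C-γ at 10 μg/mL in Tris-buffered saline. Adding 30 ng/ml enzyme started the reaction, which ran at 37° C for 15 minutes before Eu-N1 PT66 antibody detection. Percent inhibition versus log10 concentration gave IC50 by variable-slope fit.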

[2] = target: T2, c-Met (cytoplasmic domain) (Homo sapiens, UniProt P08581); test: c-Met Kinase Assay (same methods as for ALK, with modifications); assay type: biochemical
T2 construct: 10 ng/mL c-Met (cytoplasmic domain, Invitrogen Corporation #PV3143); purchased Invitrogen Corporation PV3143
T2 sequence (P08581 956-1390 limits assumed): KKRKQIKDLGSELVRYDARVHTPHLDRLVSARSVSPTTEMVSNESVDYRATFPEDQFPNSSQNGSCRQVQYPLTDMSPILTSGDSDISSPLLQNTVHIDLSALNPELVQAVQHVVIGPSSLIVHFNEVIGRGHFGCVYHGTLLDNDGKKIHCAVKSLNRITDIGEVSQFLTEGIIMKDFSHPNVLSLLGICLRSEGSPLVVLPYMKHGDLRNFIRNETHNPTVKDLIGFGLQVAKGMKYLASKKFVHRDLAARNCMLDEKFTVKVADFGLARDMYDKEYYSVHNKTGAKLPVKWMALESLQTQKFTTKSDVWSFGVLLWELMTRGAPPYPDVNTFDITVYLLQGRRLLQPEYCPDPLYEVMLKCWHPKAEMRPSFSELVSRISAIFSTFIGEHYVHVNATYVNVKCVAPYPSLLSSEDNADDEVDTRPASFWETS
Procedure, shortened: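 IC50 values were fitted by variable-slope sigmoidal regression of percent inhibition against log compound concentration. Phosphorylation was read with Eu-N1 PT66 antibody after a 15 min, 37 °C reaction. The reaction was initiated with 10 ng/mL c-Met cytoplasmic domain on wells coated with 10 μg/mL PLC-γ in TBS.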

[3] = 1 μM ATP (Km level), 30 ng/ml ALK, 37° C., 15 minutes, read-out: ALK Activity (ALK kinase inhibition, IC50 class)
[4] = 1 μM ATP (Km level), 10 ng/mL c-Met, read-out: cMet Activity (c-Met kinase inhibition, IC50 class)
[5] = ALK kinase inhibition, 1 μM ATP, read-out: ALK Activity
[6] = c-Met kinase inhibition, 1 μM ATP, read-out: cMet Activity
[7] = ALK kinase inhibition, 1 μM ATP (Km level), read-out: ALK Activity
[8] = c-Met kinase inhibition, 1 μM ATP (Km level), read-out: cMet Activity
[9] = 1 μM ATP (Km level), read-out: ALK Activity (ALK Kinase Inhibition, IC50)
[10] = 1 μM ATP (Km level), read-out: cMet Activity (c-Met Kinase Inhibition, IC50)

Compound: CNC(=O)c1cccc(F)c1Nc1nc(Nc2ccc3c(c2)NC(=O)C(N2CCOCC2)CC3)ncc1Cl (centres unmarked) [Example 1491, 2-[5-Chloro-2-(3-morpholin-4-yl-2-oxo-2,3,4,5-tetrahydro-1H-benzo[b]azepin-8-ylamino)-pyrimidin-4-ylamino]-3-fluoro-N-methyl-benzamide]
IC50 [1, 5]: < 100 nM
IC50 [2, 6]: < 100 nM

Compound: COc1cccc(C(=O)NCC#N)c1Nc1nc(Nc2ccc3c(c2)C(C)(C)CCC(=O)N3)ncc1Cl [Example 1064, 2-[5-Chloro-2-(5,5-dimethyl-2-oxo-2,3,4,5-tetrahydro-1H-benzo[b]azepin-7-ylamino)-pyrimidin-4-ylamino]-N-cyanomethyl-3-methoxy-benzamide]
IC50 [1, 3]: 1000 to 10000 nM
IC50 [2, 4]: 1000 to 10000 nM

Compound: N-(2-{5-Chloro-2-[3-(2-methoxy-ethyl)-2,3,4,5-tetrahydro-1H-benzo[d]azepin-7-ylamino]-pyrimidin-4-ylamino}-phenyl)-methanesulfonamide [Example 37]
IC50 [1, 7]: < 100 nM
IC50 [2, 8]: 1000 to 10000 nM

Compound: NC(=O)[C@@H]1[C@H](Nc2nc(Nc3ccc4c(c3)CCC(N3CCOCC3)CC4)ncc2Cl)[C@H]2C=C[C@@H]1C2 (stereo partly drawn) [Example 671, (1S,2S,3R,4R)-3-[5-Chloro-2-(7-morpholin-4-yl-6,7,8,9-tetrahydro-5H-benzocyclohepten-2-ylamino)-pyrimidin-4-ylamino]-bicyclo[2.2.1]hept-5-ene-2-carboxylic acid amide]
IC50 [1, 9]: < 100 nM
IC50 [2, 10]: < 100 nM

Compound: CCN1CCc2ccc(Nc3ncc(Br)c(Nc4ccccc4C(=O)NC)n3)cc2CC1 [Example 192, 2-[2-(3-Ethyl-2,3,4,5-tetrahydro-1H-benzo[d]azepin-7-ylamino)-5-bromo-pyrimidin-4-ylamino]-N-methyl-benzamide]
IC50 [1, 7]: < 100 nM
IC50 [2, 8]: < 100 nM

Compound: CNC(=O)c1ccc2c(c1Nc1nc(Nc3ccc4c(c3)NC(=O)CCC4(C)C)ncc1Cl)OCO2 [Example 1481, 4-[5-Chloro-2-(5,5-dimethyl-2-oxo-2,3,4,5-tetrahydro-1H-benzo[b]azepin-8-ylamino)-pyrimidin-4-ylamino]-benzo[1,3]dioxole-5-carboxylic acid methyl amide]
IC50 [1, 5]: 100 to 1000 nM
IC50 [2, 6]: 100 to 1000 nM

Compound: CNC(=O)c1ccccc1Nc1nc(Nc2cc3c(cc2Cl)CC2CCC3N2CCOC)ncc1Cl (centres unmarked) [Example 88, 2-{5-Chloro-2-[5-chloro-12-(2-methoxy-ethyl)-12-aza-tricyclo[7.2.1.0*2,7*]dodeca-2(7),3,5-trien-4-ylamino]-pyrimidin-4-ylamino}-N-methyl-benzamide]
IC50 [1, 7]: < 100 nM
IC50 [2, 8]: 1000 to 10000 nM

Compound: CC1(C)CCC(=O)Nc2ccc(Nc3ncc(Cl)c(Nc4ccccc4C(=O)NC4CC4)n3)cc21 [Example 341]
IC50 [1, 7]: < 100 nM
IC50 [2, 8]: 100 to 1000 nM

Compound: CN1CCN(C)c2cccc(Nc3ncc(Cl)c(N[C@@H]4CCCC[C@H]4NS(C)(=O)=O)n3)c2C1=O [Example 214, N-{(1R,2R)-2-[5-Chloro-2-(1,4-dimethyl-5-oxo-2,3,4,5-tetrahydro-1H-benzo[e][1,4]diazepin-6-ylamino)-pyrimidin-4-ylamino]-cyclohexyl}-methanesulfonamide]
IC50 [1, 7]: 100 to 1000 nM
IC50 [2, 8]: 1000 to 10000 nM

Compound: CCN1CCc2ccc(Nc3ncc(C(F)(F)F)c(Nc4ccc(N5CCOCC5)cc4OC)n3)cc2CC1 [Example 924, N(2)-(3-Ethyl-2,3,4,5-tetrahydro-1H-benzo[d]azepin-7-yl)-N(4)-(2-methoxy-4-morpholin-4-yl-phenyl)-5-trifluoromethylpyrimidine-2,4-diamine]
IC50 [1, 9]: < 100 nM
IC50 [2, 10]: 100 to 1000 nM

Compound: CCN1CCSc2ccc(Nc3ncc(Cl)c(Nc4ccccc4C(=O)NC)n3)cc2C1 [Example 517, 2-[5-Chloro-2-(8-ethyl-6,7,8,9-tetrahydro-5-thia-aza-benzocyclohepten-2-ylamino)-pyrimidin-4-ylamino]-N-methyl-benzamide]
IC50 [1, 9]: < 100 nM
IC50 [2, 10]: < 100 nM

Compound: COc1cc(N2CCOCC2)ccc1Nc1nc(Nc2ccc3c(c2)CCC(N2CCOCC2)CC3)ncc1Cl (centres unmarked) [Example 865, 5-Chloro-N*4*-(2-methoxy-4-morpholin-4-yl-phenyl)-N*2*-(7-morpholin-4-yl-6,7,8,9-tetrahydro-5H-benzocyclohepten-2-yl)-pyrimidine-2,4-diamine]
IC50 [1, 9]: < 100 nM
IC50 [2, 10]: 1000 to 10000 nM

Compound: CCN1C(=O)CCC(C)(C)c2ccc(Nc3ncc(Cl)c(Nc4c(F)cccc4OCC#N)n3)cc21 [Example 1520, {2-[5-Chloro-2-(1-ethyl-5,5-dimethyl-2-oxo-2,3,4,5-tetrahydro-1H-1-benzazepin-8-ylamino)-pyrimidin-4-ylamino]-3-fluoro-phenoxy}-acetonitrile]
IC50 [1, 5]: < 100 nM
IC50 [2, 6]: < 100 nM

Compound: COCCN1CCc2ccc(Nc3ncc(Cl)c(Nc4c(C)cccc4C(=O)NCC#N)n3)cc2CC1 [Example 1040, 2-{5-Chloro-2-[3-(2-methoxy-ethyl)-2,3,4,5-tetrahydro-1H-benzo[d]azepin-7-ylamino]-pyrimidin-4-ylamino}-N-cyanomethyl-3-methyl-benzamide]
IC50 [1, 3]: 100 to 1000 nM
IC50 [2, 4]: 100 to 1000 nM

Results, then the compound that gave them:

IC50 [1, 3]: 100 to 1000 nM
IC50 [2, 4]: 100 to 1000 nM
Compound: CCN1CCCOc2cc(Nc3ncc(Cl)c(Nc4ccsc4C(=O)NC)n3)ccc21 [Example 1409, 3-[5-Chloro-2-(9-ethyl-6,7,8,9-tetrahydro-5-oxa-9-aza-benzocyclohepten-3-ylamino)-pyrimidin-4-ylamino]-thiophene-2-carboxylic acid methyl amide]

IC50 [1, 7]: < 100 nM
IC50 [2, 8]: > 10000 nM
Compound: COCCN1CCc2cc(Nc3ncc(Cl)c(NC4C5C=CC(C5)C4C(N)=O)n3)c(OC)cc2CC1 (stereo not drawn) [Example 112, (2-exo,3-exo)-3-{5-Chloro-2-[8-methoxy-3-(2-methoxy-ethyl)-2,3,4,5-tetrahydro-1H-benzo[d]azepin-7-ylamino]-pyrimidin-4-ylamino}-bicyclo[2.2.1]hept-5-ene-2-carboxylic acid amide]

IC50 [1, 5]: < 100 nM
IC50 [2, 6]: 1000 to 10000 nM
Compound: COc1cc2c(cc1Nc1ncc(Cl)c(Nc3ccccc3S(=O)(=O)N3CCCC3)n1)NC(=O)CN(CC1CC1)C2 [Example 1668, 8-{5-Chloro-4-[2-(pyrrolidine-1-sulfonyl)-phenylamino]-pyrimidin-2-ylamino}-4-cyclopropylmethyl-7-methoxy-1,3,4,5-tetrahydro-benzo[e][1,4]diazepin-2-one]

IC50 [1, 9]: < 100 nM
IC50 [2, 10]: < 100 nM
Compound: CNC(=O)c1ccccc1Nc1nc(Nc2ccc3c(c2)CCC(NCC(F)(F)F)CC3)ncc1Cl (centres unmarked) [Example 651, 2-{5-Chloro-2-[7-(2,2,2-trifluoro-ethylamino)-6,7,8,9-tetrahydro-5H-benzocyclohepten-2-ylamino]-pyrimidin-4-ylamino}-N-methyl-benzamide]

IC50 [1, 3]: < 100 nM
IC50 [2, 4]: < 100 nM
Compound: CCOC(=O)N1CCCOc2cc(Nc3ncc(Cl)c(Nc4ccccc4C(=O)NC)n3)ccc21 [Example 1419, 3-[5-Chloro-4-(2-methylcarbamoyl-phenylamino)-pyrimidin-2-ylamino]-7,8-dihydro-6H-5-oxa-9-aza-benzocycloheptene-9-carboxylic acid ethyl ester]

IC50 [1, 3]: 100 to 1000 nM
IC50 [2, 4]: > 10000 nM
Compound: COc1cc2c(cc1Nc1ncc(Cl)c(NC3(C(=O)NCC#N)CC3)n1)CCN(CC(=O)N(C)C)CC2 [Example 1199, 1-[5-Chloro-2-(3-dimethylcarbamoylmethyl-8-methoxy-2,3,4,5-tetrahydro-1H-benzo[d]azepin-7-ylamino)-pyrimidin-4-ylamino]-cyclopropanecarboxylic acid cyanomethyl-amide]

IC50 [1, 5]: 100 to 1000 nM
IC50 [2, 6]: < 100 nM
Compound: CNC(=O)c1sccc1Nc1nc(Nc2ccc3c(c2)CCOC(=O)N3C)ncc1Cl [Example 1747, 3-[5-Chloro-2-(5-methyl-6-oxo-5,6,8,9-tetrahydro-7-oxa-5-aza-benzocyclohepten-2-ylamino)-pyrimidin-4-ylamino]-thiophene-2-carboxylic acid methylamide]

IC50 [1, 3]: < 100 nM
IC50 [2, 4]: > 10000 nM
Compound: CCN1C(=O)[C@H](NC(=O)C2CC2)CCc2c1ccc(Nc1ncc(Cl)c(N[C@H]3[C@@H](C(N)=O)[C@@H]4C=C[C@H]3C4)n1)c2OC (single isomer, unassigned) [Example 1357]

IC50 [1, 7]: < 100 nM
IC50 [2, 8]: > 10000 nM
Compound: 7-[5-Chloro-4-(2-methoxy-4-morpholin-4-yl-phenylamino)-pyrimidin-2-ylamino]-1-ethyl-5,5-dimethyl-1,3,4,5-tetrahydro-benzo[b]azepin-2-one [Example 393]

IC50 [1, 5]: < 100 nM
IC50 [2, 6]: < 100 nM
Compound: CC1(C)NC(=O)CCc2ccc(Nc3ncc(Cl)c(NC4C5C=CC(C5)C4C(N)=O)n3)cc21 (centres unmarked) [Example 1832, 3-(5-Chloro-2-(1,1-dimethyl-3-oxo-2,3,4,5-tetrahydro-1H-benzo[c]azepin-8-ylamino)pyrimidin-4-ylamino)bicyclo[2.2.1]hept-5-ene-2-carboxamide]

IC50 [1, 5]: 1000 to 10000 nM
IC50 [2, 6]: 100 to 1000 nM
Compound: CNC(=O)c1scc(C)c1Nc1nc(Nc2ccc3c(c2)NC(=O)CN(C(=O)C(F)(F)F)C3)ncc1Cl [Example 1866, 3-{5-Chloro-2-[2-oxo-4-(2,2,2-trifluoro-acetyl)-2,3,4,5-tetrahydro-1H-benzo[e][1,4]diazepin-8-ylamino]-pyrimidin-4-ylamino}-4-methyl-thiophene-2-carboxylic acid methylamide]
